The test system of one data set is A549 cells. Put plainly: Cellular toxicity / viability of transfected A549 cells (resazurin assay). Type of data set: cell-based. The protocol:
A549 cells were chosen as they are both facile to grow and transfect, cost effective in terms of media and other reagents, and importantly have retained a functional p53 gene.
Cells were then allowed to recover for one additional day, after which viability was cells were incubated with resazurin (Millipore Sigma) for 4 hours, after which fluorescence was quantified by a plate reader (Perkin Elmer).
Unless otherwise noted, adherent cells (A549 or H1299) were seeded in 96 well plates and grown in either 50/50 F-12/DMEM or RPMI-1640 respectively, supplemented with 5% FBS and grown to roughly 70% confluency. Cells were then transfected with either Cal-Phos as described in Chen 2012 or Lipofectamine 3000 (Thermofisher). Fresh media was exchanged the next day and cellular viability was quantified on day 2.
20 μL of 0.15 mg/mL Resazurin solution was added to cells either plated in 96 well plates for all cell lines, which were then incubated for ˜4 hours at 37° C. Cellular toxicity was quantified using a Tecan SpectraFlour Plus plate reader (Tecan) using a 535/595 filter set. Raw data was then normalized to the mean of the untransfected controls and plotted as described.
20 μL of 0.15 mg/mL Resazurin solution was added to cells either plated in 96 well plates for all cell lines, which were then incubated for ˜4 hours at 37° C. Cellular toxicity was quantified using a Tecan SpectraFlour Plus plate reader (Tecan) using a 535/595 filter set. Raw data was then normalized to the mean of the untransfected controls and plotted as described. […] Stats: All two-sided students T-test with unequal variance.
(Resazurin is reduced to fluorescent resorufin, in cell work by metabolically active cells.)

The subject of data set [1] is intergenic region on Chromosome 6 (Int-G2, Int-G3). Put plainly: PuroRT HDR quantification in K562 cells (puromycin survival). Type of data set: cell-based, human.
Description: The target integration site is approximately ˜1 kb to the 3′ end of the human H2B gene on Chromosome 6, an intergenic region which has no predicted genes or long non-coding RNA.
Next, to assay HDR rates, K562 cells were again used instead of A549 cells, as the lack of a functional p53 gene should help to deconvolute HDR rates from cellular toxicity effects. […] After two days, DNA was extracted from ˜ 1/10 of surviving cells and used for analysis of Puro RT genomic integration. The next day, 0.5 mg/mL puromycin was added, and after three days cellular survival was quantified via resazurin assay as described previously.
After two days, 1/10 of cells were taken for DNA extraction, while the rest were treated with 0.5 μg/mL puromycin. Cells were grown for a further 3 days then viability quantified via Resazurin assay.
The next data set deals with HBB amplicon. Put plainly: In-vitro exonuclease assay with purified proteins. The conditions noted are these: 30 nM protein, 3 nM HBB amplicon, 37° C., 60 minutes. Type of data set: biochemical, human. Here is the method: Reactions were then electrophoresed and visualized on an agarose gel. FIG. 5C illustrates quantification of exonuclease activity. Quantification of exonuclease activity assayed in FIG. 5B. 3 replicates were performed for each reaction and were quantified via FIJI (ImageJ) and then normalized to control amplicon levels.
Reactions were then electrophoresed and visualized on an agarose gel.
DNA was isolated from wildtype K562 cells, and amplified using standard Taq DNA polymerase and HBB-out-F (5′-[…]-3′ (SEQ ID NO: 125)) and HBB-out-R (5′-[…]-3′ (SEQ ID NO: 126)), Tm=56 for 35 cycles, and purified using the Qiagen PCR cleanup kit. […] The samples were then electrophoresed on a standard 1% TAE agarose gel stained with gel green.

In a further data set the test system is Cadherin1. Put plainly: Cadherin1:mCherry HDR in H1299 cells. Type of data set: cell-based, human. Here is the method:
After three days, media was replaced with HBSS (to reduce background for imaging) imaged using an EVOS M5000 imaging system. Imaging was performed by randomly finding and focusing on at least ten different sections per well using a 10× magnification lens, after which both brightfield and RFP images were acquired. Imaged were quantified by hand, using control images as the basis for RFP/mCherry background fluorescence.

A further data set has as its system CDH1. Put plainly: CDH1:mCherry knock-in in HEK293 cells. Particulars: Ecad-G1. The data set is classed as cell-based, human. Here is the method: After three days, media was replaced with HBSS (to reduce background for imaging) imaged using an Cytation5 imaging system. Imaging was performed by taking a 6×6 stitched image in the middle of the well using an 10× magnification lens, where both brightfield and RFP images were acquired. HDR rates were quantified via ImageJ, two independent replicates were performed per treatment. FIG. 13A illustrates a Cadherin1:mCherry RT design showing the human genomic region surrounding the last exon (exon 16) of Cadherin1. Two different gRNAs are denoted by black arrows (G1, G2), with arrow direction indicating the targeted strand. A repair template was constructed containing about 750 bp long 5′ and 3′ Homology arms, exon 16 of Cadherin1, silent mutations introduced to prevent gRNA binding to the RT, and a direct fusion of the fluorescent protein mCherry. FIG. 13B illustrates quantification of Cadherin1:mCherry HDR rate in H1299 cells showing the average mCherry+ cells per image section (>10 for all conditions) imaged at day 3 post transfection.

In a further data set the test system is CHO-SHS-1.2. The data set can be described thus: CHO cell Cas9-HR8 stable knock-in, anti-Cas9 western blot. Particulars: CHO cells; CHO-SHS-1.2-G1; Puromycin 10 days, then 12 days without. The data set is classed as cell-based. The protocol:
CHO-Freestyle Cells (Invitrogen) were grown to ˜70% confluency, after which were transfected using the Neon (Thermo) transfection system and 250 ng of Cas9-HR8, 250 ng of either CHO-SHS-1.2-G1, and 50 ng CHO-SHS-1.2-pCAG-Cas9-HR8-IRES-PuroR RT. Cells were allowed to recover for two days, then treated with […] Puromycin for 10 days, after which Puromycin selection was removed. Cells were grown for an additional 12 days, after which cells split and half were frozen, while the other half was treated with RIPA buffer (Santa-Cruz) to extract protein, with non-transfected control CHO cells protein also extracted via RIPA buffer. Lysate was normalized and 7.5 ug total protein was loaded onto a 4-12% Bis-Tris Acrylamide gel (Invitrogen), and transferred to nitrocellulose using BioRad blotting and transfer system (BioRad). Membrane was washed 3× with 1×PBST (BioRad), blocked for 10 minutes using EveryBlot blocking solution (BioRad), and incubated for 1 hr at RT with a 1:1000 dilution of mouse anti-Cas9 (SantaCruz). Membrane was washed 5× for 5 minutes each in PBST, then incubated for an hour with 1:1000 rabbit anti-mouse-HRP secondary antibody for 1 hr at RT. Membrane was then washed 5× for 5 minutes each in PBST, after which a 1× NC/DAB (ThermoFisher) solution was used to visualize bands. FIG. 22A illustrates an exemplary diagram showing CHO cell Cas9-HR8 stable knock-in protocol. […]
Background: Immunoblotting shows a protein as a band on a membrane.

[2] abbreviates: comparison with Dna2 fusions, day 3.

Entries after “also recorded” stand apart in the source; their conditions may differ.

With “Cas9-HR 8: hExo1(1-352)-Cas9 fusion of FIG. 1A; E. coli codon optimized vectors SEQ ID NO: 68 and 69”, the “cellular viability relative to Cas9” value with A549 cells (Cadherin1 G1 or G2, Day 2 post transfection) is listed as “significant increases in cellular viability”. For the same substance, in the data set with A549 cells (H2B-G4 guide, lipofectamine 3000), the “cellular toxicity compared to Cas9” value is listed as “significant reduction in cellular toxicity”. Also, the cellular toxicity entry with A549 cells (Int-G2 and Int-G3, CalPhos) was “dramatic reduction in cellular toxicity”. In addition, the “cellular viability relative to Cas9” value in the data set on A549 cells (SHS-231 G1, G2 or G3, Day 2 post transfection) is “significant increases in cellular viability”. In data set [1], the “PCR of genomic integration of Puro RT at 5′ and 3′ ends” value is “successful integration of the repair template”. The “exonuclease activity (reduction of full length HBB amplicon)” value with HBB amplicon was “significant reduction in the full length HBB amplicon; also recorded: significant exonuclease activity”. The “mCherry+ cells, whole well imaging” value in the data set with Cadherin1 (H1299 cells, 12 well plate, Ecad-G1, 4 Days after transfection) was “significant amounts of mCherry+ cells; also recorded: significantly higher amounts of mCherry+ cells”. In addition, the “fold change in mCherry+ cells relative to Cas9” value with Cadherin1 (H1299 cells, G1, day 3) was about 2.3 fold. Further, the “fold increase in mCherry+ cells relative to Cas9” value with Cadherin1 (H1299 cells, all guide polynucleotides, day 3) is given as over 1.5 fold. In addition, in the data set on Cadherin1 (H1299 cells, all three gRNAs (so in the source), day 3), the “mCherry+ cells compared to Cas9” value is “significant increases in mCherry+ cells”. Also, the “positive cell count compared to Cadherin1:mCherry alone” value with Cadherin1 (H1299 cells, average mCherry+ cells per image section, day 3) is given as “significant increases in positive cell count”. In the data set with Cadherin1 (comparison with Dna2 fusions), the “normalized Cadherin1:mCherry HDR rate (fold change compared to Cas9)” value is recorded as “significantly higher HDR rate”. For the same substance, in the data set on Cadherin1 (setting [2]), the “mCherry+ cell count compared to Cadherin1:mCherry RT alone” value was “significant increases in mCherry+ cell count” and the “mCherry+ cells compared to Cas9” value is given as “significant increases in mCherry+ cells”. Further, in the data set with CDH1, the “HDR rates compared to Cas9 (normalized knock-in rates)” value was about 3.5 ×, the “absolute mCherry+ cells relative to Cas9-NT or repair template alone” value is given as “significant increases in mCherry+ cells” and the “numbers of mCherry+ cells compared to repair template” value is recorded as “significantly increased numbers of mCherry+ cells”. Further, the “stable knock-in of Cas9-HR8 repair template (over 8 kb), anti-Cas9 western blot” value in the data set with CHO-SHS-1.2 was “stably integrated Cas9-HR8”.

These data come from patent US20230416785A1, “NUCLEASE AND APPLICATION THEREOF” (CRISP-HR Therapeutics, Inc., priority 2020, published 2023).
